The results in this text go back to US20140187786A1, “1,3,4-TRISUBSTITUTED BENZENES” (EnVivo Pharmaceuticals, Inc., priority 2007, published 2014).

Broadly, the melting point is the temperature, or range, at which the solid turns liquid.

`CC(C)CC(C(=O)O)c1ccc(-c2ccc(C(F)(F)F)cc2)c(OCC2CC2)c1` (stereo not shown) [Example 142, 2-(2-cyclopropylmethoxy-4′-trifluoromethyl-biphenyl-4-yl)-4-methyl-pentanoic acid] displayed a melting point of 142 to 143 °C.
